The conditions of data set [1]: room temperature; cited from earlier work.
A short description of data set [2]: Diffusivity of example drug molecules in water and in broad membrane pores. The note with it: diffusivity within broad-pore membrane (HFHHP); unit not printed in this column, D is in cm^2/s. It counts as physicochemical. The source says: Assuming that the pore diameter essentially exceeds the molecule dimension, which is necessary for drug release to occur in any of the modes of drug release, Dm can be presented as product of three multipliers: diffusivity in water D, membrane porosity ε and tortuosity t0; Dm=Dεt0^−1. The maximal porosity is about 0.5. Taking into account the tortuosity t0=2, Dm˜0.25D. Vl has to be replaced by local interstitial velocity Vint. In turn, Vint can be specified as Vn(LB), when the condition 2Rlb>>Rf is valid and the fabric is placed at a small distance from LB. […] As to lm, having its value be small is desirable for the diffusion-dominated case.
[formula] This yields, E=Pe^0.5. This equation estimate E from below, i.e., the real E is essentially larger. A larger Pe means a larger role of convection in comparison with diffusion. […] But the derived equation quantifies this observation. The diffusivity D depends on the water viscosity η and on the macromolecule radius r. This dependence is described by the Stokes-Einstein equation:
[formula] where k is the Boltzman constant, T is absolute temperature. r increases with molecular weight (MW) and 100<MW<500 g/mole. This is not true for proteins and larger molecules.
With respect to broad pores of membrane in case of HFHHP, Dm≅εt0^−1D˜0.25D.

For data set [3] the following is noted: diffusivity in water; cited from earlier work.
Data set [4] concerns Pseudomonas aeruginosa PAO1 Xen41. The experiment in a line: Zone of inhibition (modified Kirby-Bauer) of drug-loaded hollow fibers. It counts as cell-based. As to conditions: drug-loaded polypropylene hollow fibers (saturated solution). Here is the method: (§1) To assess the antimicrobial efficacy of drug loaded hollow fibers, we used a modified Kirby-Bauer assay where a zone of inhibition of bacterial growth was measured on a solid agar plate as is normally done in the field of microbiology. This model was used since it allowed us to capture the real time drug release from the hollow fibers and at the same time to represent a model of drug release into a soft tissue. […] Vancomycin was chosen for proof of principle with the hollow fibers devices because this antibiotic has precedent in being commonly used to combat S. aureus infection in orthopedic joint arthroplasties, where locally high concentrations are delivered by elution from both non-absorbable (polymethyl methacrylate, PMMA) and absorbable mineral cements. Ciprofloxacin was used since it is a broad spectrum antibiotic used to target Gram negative pathogens such as P. aeruginosa. In addition, water soluble fluorescein sodium was used as a model drug to assess the release of a hydrophilic water-soluble agent from the hollow fiber drug delivery system. All reagents were purchased from Sigma-Aldrich. P. aeruginosa and S. aureus are biofilm-forming pathogens commonly isolated from infected meshes and sutures, and the strains we have selected have been transformed with bioluminescent genes so that live biofilm development and activity can be tracked in real time using a photon counting camera (Xenogen IVIS imaging system, Alameda, Calif.).
(§2) A lawn of bacteria was spread out onto an LB (Luria broth) agar plate. The plate was incubated at 5% CO2 at 37° C. for 18 hours for the first challenge. The fibers were then aseptically removed from the original plate and placed on a fresh lawn of bacteria on a new plate for the second challenge and incubated as before. Drug-free hollow fibers rinsed with isopropanol alone were used as controls. Experiments were repeated in triplicate. […] The fibers were then placed on a fresh plate and re-challenged. […]

The nature of data set [5]: Saturated drug solutions in normal saline used to fill hollow fibers. It counts as physicochemical.
Description: Pressure was applied on the syringe plunger until liquid drops were visibly seen to form at the open end of each of the hollow fibers.
Data set [6] concerns Staphylococcus aureus 16MRSA Xen30. The experiment in a line: Zone of inhibition (modified Kirby-Bauer) of drug-loaded hollow fibers. It counts as cell-based. As to the method: as §1, §2

With `CO[C@H]1/C=C/O[C@@]2(C)Oc3c(C)c(O)c4c(O)c(c(/C=N/N5CCN(C)CC5)c(O)c4c3C2=O)NC(=O)/C(C)=C\C=C\[C@H](C)[C@H](O)[C@@H](C)[C@@H](O)[C@@H](C)[C@H](OC(C)=O)[C@@H]1C` [rifampicin], in data set [1], the solubility in methanol result is given as “at least 50 milligrams/milliliter”.

As to Insulin, in data set [2], the “Dm = 0.25 D” value was 2.5 × 10^−7. Moreover, in data set [3], the “D (cm^2/s) Aqueous” value is reported as 8.3 × 10^−7 cm^2/s.

Regarding `O=C(O)c1cn(C2CC2)c2cc(N3CCNCC3)c(F)cc2c1=O` [ciprofloxacin], in data set [4], the “challenges over which a zone of inhibition was achieved” value is on record as “one challenge”.

As for `CN[C@H](CC(C)C)C(=O)N[C@H]1C(=O)N[C@@H](CC(N)=O)C(=O)N[C@H]2C(=O)N[C@H]3C(=O)N[C@H](C(=O)N[C@H](C(=O)O)c4cc(O)cc(O)c4-c4cc3ccc4O)[C@H](O)c3ccc(c(Cl)c3)Oc3cc2cc(c3O[C@@H]2O[C@H](CO)[C@@H](O)[C@H](O)[C@H]2O[C@H]2C[C@](C)(N)[C@H](O)[C@H](C)O2)Oc2ccc(cc2Cl)[C@H]1O` [vancomycin], the “concentration of saturated solution” value in data set [5] worked out at 100000 µg/mL. Further, in data set [6] (drug-loaded polypropylene hollow fibers (saturated solution), repeated challenges on fresh lawns), the “period over which a zone of inhibition was achieved” value is listed as 2 days. For the same compound, the “activity on the second challenge” value in data set [6] (fiber moved to a fresh plate and re-challenged) is on record as “showed activity”.

With `Cn1c(=O)c2c(ncn2C)n(C)c1=O` [Caffeine], the “Dm = 0.25 D” value in data set [2] was 1.5 × 10^−6. For the same compound, the “D (cm^2/s) Aqueous” value in data set [3] was 4.9 × 10^−6 cm^2/s.
